Experimental data as given in patent US20230242582A1, “NOVEL ALPHA-HELICAL DOUBLE-SIDED CELL PENETRATING PEPTIDE AND USE THEREOF” (CAMP THERAPEUTICS INC., priority 2020, published 2023).
Positions of bridges follow the written chain, without caps; N, C: chain ends. Non-standard residues stand in square brackets, D forms with d. Residues, ends and D or L forms follow the SMILES beside them. Chains are numbered I, II in the order given. tBuAla = CC(C)(C)C[C@H](N)C(=O)O; hCys = N[C@@H](CCS)C(=O)O

These compounds were tested on HeLa cells (assay: Cell-penetrating ability of fluorescently labeled dimeric peptides, flow cytometry). Conditions: HeLa cells, flow cytometry, FIG. 4.
Format: cell-based, human
Description: During preparation of CPPs in dimeric form shown in Tables 1 to 3, one monomer thereof was prepared in a form where 5-TAMRA fluorescence was attached to the N-terminus, instead of acetyl. A monomer with acetyl and a monomer with 5-TAMRA fluorescence were mixed in a molar ratio of 1:1, and subjected to an oxidation condition in air to produce a dimeric form in which only one fluorescence was labeled per dimer molecule. Then, cell-penetrating ability of each dimer was identified. Each fluorescently labeled peptide was used to treat HeLa cells (5×10^4 cells/well), which are human-derived cells, and a ratio of the number of cells with fluorescence to the total number of cells was obtained through flow cytometry.
FIGS. 4B to 4D illustrate results obtained by treating cells with respective dimers at the same concentration (62.5 nM), measuring fluorescence intensity of the cells by flow cytometry, and relatively comparing the fluorescence intensity.
Based on cell-penetrating ability and cytotoxicity of the dimeric peptides of the present disclosure, correlation therebetween was identified. Cytotoxicity (IC50^−1) and cell-penetrating ability of the respective peptides were identified at 62.5 nM according to the methods described in Examples 5 and 6, and then graphically represented.

**Q.** “diLR10^C9Hcy: dimer of monomer LR10^C9Hcy, Ac-LCRLLRRLHcyR-NH2 (SEQ ID NO 43) (Ac-LCRLLRRL[hCys]R-NH2; also: dimer linked by intermolecular disulfides)” was tested. Which cell-penetrating ability did it give?
**A.** The cell-penetrating ability was “best results”.

Same assay, conditions: at 62.5 nM, FIG. 6A

**Q.** For `CC(=O)N[C@@H](CC(C)C)C(=O)N[C@@H](CCCCN)C(=O)N[C@@H](CCCCN)C(=O)N[C@@H](CC(C)C)C(=O)N[C@H]1CSSC[C@@H](C(=O)N[C@@H](CCCCN)C(=O)N[C@@H](CC(C)C)C(=O)N[C@@H](C)C(=O)NCC(N)=O)NC(=O)[C@H](CC(C)C)NC(=O)[C@H](CCCCN)NC(=O)[C@H](CCCCN)NC(=O)[C@H](CC(C)C)NC(=O)[C@H](CC(C)C)NC(=O)[C@H](CCCCN)NC(=O)[C@@H](NC(=O)[C@H](CC(C)C)NC(=O)[C@H](CCCCN)NC(=O)[C@H](CCCCN)NC(=O)[C@H](CC(C)C)NC(C)=O)CSSC[C@@H](C(=O)N[C@@H](CCCCN)C(=O)N[C@@H](CC(C)C)C(=O)N[C@@H](C)C(=O)NCC(N)=O)NC(=O)[C@H](CC(C)C)NC(=O)[C@H](CCCCN)NC(=O)[C@H](CCCCN)NC(=O)[C@H](CC(C)C)NC(=O)[C@H](CC(C)C)NC(=O)[C@H](CCCCN)NC1=O` [LK-3, reference compound] (HELM PEPTIDE1{[ac].L.K.K.L.C.K.L.L.K.K.L.C.K.L.A.G.[am]}|PEPTIDE2{[ac].L.K.K.L.C.K.L.L.K.K.L.C.K.L.A.G.[am]}$PEPTIDE1,PEPTIDE2,6:R3-13:R3|PEPTIDE1,PEPTIDE2,13:R3-6:R3$$$V2.0; bridges inferred), which “ratio of cell-penetrating ability to cytotoxicity (IC50^−1)” value (“ratio of cell-penetrating ability” below) is on record?
**A.** Its value is “about 130,000”.

**Q.** Which “ratio of cell-penetrating ability” value does the source give for `CC(=O)N[C@@H](Cc1ccccc1)C(=O)N[C@H]1CSSC[C@@H](C(=O)N[C@@H](CCCNC(=N)N)C(N)=O)NC(=O)[C@H](Cc2ccccc2)NC(=O)[C@H](CCCNC(=N)N)NC(=O)[C@H](CCCNC(=N)N)NC(=O)[C@H](Cc2ccccc2)NC(=O)[C@H](Cc2ccccc2)NC(=O)[C@H](CCCNC(=N)N)NC(=O)[C@@H](NC(=O)[C@H](Cc2ccccc2)NC(C)=O)CSSC[C@@H](C(=O)N[C@@H](CCCNC(=N)N)C(N)=O)NC(=O)[C@H](Cc2ccccc2)NC(=O)[C@H](CCCNC(=N)N)NC(=O)[C@H](CCCNC(=N)N)NC(=O)[C@H](Cc2ccccc2)NC(=O)[C@H](Cc2ccccc2)NC(=O)[C@H](CCCNC(=N)N)NC1=O` [diFR10] (HELM PEPTIDE1{[ac].F.C.R.F.F.R.R.F.C.R.[am]}|PEPTIDE2{[ac].F.C.R.F.F.R.R.F.C.R.[am]}$PEPTIDE1,PEPTIDE2,3:R3-10:R3|PEPTIDE1,PEPTIDE2,10:R3-3:R3$$$V2.0; bridges inferred) here?
**A.** Its value is “low toxicity as compared with cell-penetrating ability”.

**Q.** Which “ratio of cell-penetrating ability” value does the source give for `CC(=O)N[C@@H](CC(C)(C)C)C(=O)N[C@H]1CSSC[C@@H](C(=O)N[C@@H](CCCCN)C(N)=O)NC(=O)[C@H](CC(C)(C)C)NC(=O)[C@H](CCCCN)NC(=O)[C@H](CCCCN)NC(=O)[C@H](CC(C)(C)C)NC(=O)[C@H](CC(C)(C)C)NC(=O)[C@H](CCCCN)NC(=O)[C@@H](NC(=O)[C@H](CC(C)(C)C)NC(C)=O)CSSC[C@@H](C(=O)N[C@@H](CCCCN)C(N)=O)NC(=O)[C@H](CC(C)(C)C)NC(=O)[C@H](CCCCN)NC(=O)[C@H](CCCCN)NC(=O)[C@H](CC(C)(C)C)NC(=O)[C@H](CC(C)(C)C)NC(=O)[C@H](CCCCN)NC1=O` [diNpgK10] (I: Ac-[tBuAla]CK[tBuAla][tBuAla]KK[tBuAla]CK-NH2 / II: Ac-[tBuAla]CK[tBuAla][tBuAla]KK[tBuAla]CK-NH2; disulfide I:2-II:9, I:9-II:2 (inferred)) here?
**A.** The value was “low toxicity as compared with cell-penetrating ability”.

**Q.** With `CC(=O)N[C@@H](CC(C)(C)C)C(=O)N[C@H]1CSSC[C@@H](C(=O)N[C@@H](CCCNC(=N)N)C(N)=O)NC(=O)[C@H](CC(C)(C)C)NC(=O)[C@H](CCCNC(=N)N)NC(=O)[C@H](CCCNC(=N)N)NC(=O)[C@H](CC(C)(C)C)NC(=O)[C@H](CC(C)(C)C)NC(=O)[C@H](CCCNC(=N)N)NC(=O)[C@@H](NC(=O)[C@H](CC(C)(C)C)NC(C)=O)CSSC[C@@H](C(=O)N[C@@H](CCCNC(=N)N)C(N)=O)NC(=O)[C@H](CC(C)(C)C)NC(=O)[C@H](CCCNC(=N)N)NC(=O)[C@H](CCCNC(=N)N)NC(=O)[C@H](CC(C)(C)C)NC(=O)[C@H](CC(C)(C)C)NC(=O)[C@H](CCCNC(=N)N)NC1=O` [diNpgR10] (I: Ac-[tBuAla]CR[tBuAla][tBuAla]RR[tBuAla]CR-NH2 / II: Ac-[tBuAla]CR[tBuAla][tBuAla]RR[tBuAla]CR-NH2; disulfide I:2-II:9, I:9-II:2 (inferred)) as the compound, how does the “ratio of cell-penetrating ability” value read?
**A.** Its value is “low toxicity as compared with cell-penetrating ability”.

These compounds were tested on HeLa cells (assay: Cytotoxicity of dimeric peptides, WST-1 assay). Conditions: IC50 relative to LK-3, HeLa cells.
Format: cell-based, human
Description: Cytotoxicity was identified using WST-1 assay by treating HeLa cells with peptides in a 96-well plate (1×10^4 cells/well) for 24 hours.
Specifically, HeLa cells were cultured in DMEM at a condition of 37° C. with 5% CO2. The cells were respectively cultured in a cell culture plate, and then removed with trypsin. The cells were seeded at 1×10^4 cells per well in a 96-well plate. After 24 hours, the peptide was added to the media, and culture was performed again at a condition of 37° C. with 5% CO2 for 24 hours. 10 uL of WST-1 reagent was added per well, and reaction was allowed to proceed for 30 minutes at a condition of 37° C. with 5% CO2. Then, UV absorbance was measured at 450/700 nm with a 96-well plate reader.

**Q.** `CC(=O)N[C@@H](CC(C)C)C(=O)N[C@@H](CCCCN)C(=O)N[C@@H](CCCCN)C(=O)N[C@@H](CC(C)C)C(=O)N[C@H]1CSSC[C@@H](C(=O)N[C@@H](CCCCN)C(=O)N[C@@H](CC(C)C)C(=O)N[C@@H](C)C(=O)NCC(N)=O)NC(=O)[C@H](CC(C)C)NC(=O)[C@H](CCCCN)NC(=O)[C@H](CCCCN)NC(=O)[C@H](CC(C)C)NC(=O)[C@H](CC(C)C)NC(=O)[C@H](CCCCN)NC(=O)[C@@H](NC(=O)[C@H](CC(C)C)NC(=O)[C@H](CCCCN)NC(=O)[C@H](CCCCN)NC(=O)[C@H](CC(C)C)NC(C)=O)CSSC[C@@H](C(=O)N[C@@H](CCCCN)C(=O)N[C@@H](CC(C)C)C(=O)N[C@@H](C)C(=O)NCC(N)=O)NC(=O)[C@H](CC(C)C)NC(=O)[C@H](CCCCN)NC(=O)[C@H](CCCCN)NC(=O)[C@H](CC(C)C)NC(=O)[C@H](CC(C)C)NC(=O)[C@H](CCCCN)NC1=O` [LK-3, reference compound] (HELM PEPTIDE1{[ac].L.K.K.L.C.K.L.L.K.K.L.C.K.L.A.G.[am]}|PEPTIDE2{[ac].L.K.K.L.C.K.L.L.K.K.L.C.K.L.A.G.[am]}$PEPTIDE1,PEPTIDE2,6:R3-13:R3|PEPTIDE1,PEPTIDE2,13:R3-6:R3$$$V2.0; bridges inferred) was tested. Which ratio did it give?
**A.** The ratio was 1.00.

**Q.** For `CC(=O)N[C@@H](Cc1ccccc1)C(=O)N[C@H]1CSSC[C@@H](C(=O)N[C@@H](CCCNC(=N)N)C(N)=O)NC(=O)[C@H](Cc2ccccc2)NC(=O)[C@H](CCCNC(=N)N)NC(=O)[C@H](CCCNC(=N)N)NC(=O)[C@H](Cc2ccccc2)NC(=O)[C@H](Cc2ccccc2)NC(=O)[C@H](CCCNC(=N)N)NC(=O)[C@@H](NC(=O)[C@H](Cc2ccccc2)NC(C)=O)CSSC[C@@H](C(=O)N[C@@H](CCCNC(=N)N)C(N)=O)NC(=O)[C@H](Cc2ccccc2)NC(=O)[C@H](CCCNC(=N)N)NC(=O)[C@H](CCCNC(=N)N)NC(=O)[C@H](Cc2ccccc2)NC(=O)[C@H](Cc2ccccc2)NC(=O)[C@H](CCCNC(=N)N)NC1=O` [diFR10] (HELM PEPTIDE1{[ac].F.C.R.F.F.R.R.F.C.R.[am]}|PEPTIDE2{[ac].F.C.R.F.F.R.R.F.C.R.[am]}$PEPTIDE1,PEPTIDE2,3:R3-10:R3|PEPTIDE1,PEPTIDE2,10:R3-3:R3$$$V2.0; bridges inferred), which ratio is on record?
**A.** Its ratio is 4.10.
